Data published in patent US10076525B2, “Sex steroid precursors alone or in combination with selective estrogen receptor modulators for the prevention and treatment of dyspareunia in postmenopausal women” (ENDORECHERCHE, INC., priority 2004, dated 2018).

Columns and labels:
rat vagina = test: Vaginal weight after 36 weeks of treatment; assay type: in vivo; settings: OVX rats, 36 wk, mean±SEM; OVX 101±5, intact 205±11
Description: (§1) Animals from the intact and OVX control groups received the vehicle alone.
Twenty-four hours after the last dosing, overnight fasted animals were sacrificed under isoflurane anesthesia by exsanguination at the abdominal aorta (9 animals per group) or by intracardiac perfusion with 10% neutral buffered formalin (5 animals per group). Vaginae from non-perfused animals were collected and weighed, while the vaginae collected from perfused animals were marked with black ink on the ventral side, and then trimmed as described below.
Data are presented as means±SEM of 8-9 animals per group for vaginal weight or 5 animals per group for vaginal layer thickness determinations. Statistical significance was determined according to the multiple-range test of Duncan-Kramer (Kramer, 1956, Biometrics, 12: 307-310).

PR = test: Immunohistochemistry of PR in fifth vaginal segment; assay type: in vivo, rat; settings: OVX rats, 36 wk
Procedure: as §1
Immunostaining was performed using Zymed SP kits (San Francisco, Calif.). Paraffin sections (4 μm) were deparaffinized in toluene and rehydrated through ethanol. Endogenous peroxidase activity was eliminated by preincubation with 3% H2O2 in methanol for 30 min. A microwave retrieval technique using citrate buffer (Tacha and Chen, 1994) was applied. After cooling the slides, non-specific binding was blocked using 10% goat serum for 20 min. Sections were then incubated for 1.5 h at room temperature with ERα (AB-1, Calbiochem, California), AR (N-20, Santa Cruz Biotechnology, California) or PR (Ab-4, NeoMarkers, California) antibodies, at 1:200, 1:250 and 1:250 respectively. After washing in PBS buffer, sections were incubated with biotinylated anti-rabbit secondary antibody for 10 min and thereafter with streptavidin-peroxidase for another 10 min. Diaminobenzidine was used as the chromogen to visualize the biotin/streptavidin-peroxidase complex, under microscope monitoring. Counterstaining was performed using #2 Gill's hematoxylin for 30 sec. For controls, immunoabsorption with an excess of the peptide used to raise the antibody, or substitution with non immune rabbit IgG, was performed.

SMILES: C[C@]12CC[C@H](O)CC1=CC[C@@H]1[C@@H]2CC[C@]2(C)C(=O)CC[C@@H]12 [DHEA, dehydroepiandrosterone]
- vaginal weight (rat vagina): 171 ± 12 mg
- PR: semi-quantitative evaluation of labeled nuclei (PR; epithelium): 0
- PR: semi-quantitative evaluation of labeled nuclei (PR; lamina propria): 0
- PR: labeling intensity (PR; muscularis): ++
- PR: semi-quantitative evaluation of labeled nuclei (PR; muscularis): 1
